Our source for the Ratio IC50 and IC50 values is ChEMBL document CHEMBL3865850, “Discovery of Potent and Selective Leads against Toxoplasma gondii Dihydrofolate Reductase via Structure-Based Design” (ACS Med Chem Lett, 2016).

The structures appear in SMILES notation.

A short description of assay [1]: Selectivity ratio of IC50 for human DHFR to IC50 for Toxoplasma gondii DHFR.
Assay [2] deals with T1, Bifunctional dihydrofolate reductase-thymidylate synthase (Toxoplasma gondii, UniProt Q07422).
T1 sequence (Q07422 whole entry): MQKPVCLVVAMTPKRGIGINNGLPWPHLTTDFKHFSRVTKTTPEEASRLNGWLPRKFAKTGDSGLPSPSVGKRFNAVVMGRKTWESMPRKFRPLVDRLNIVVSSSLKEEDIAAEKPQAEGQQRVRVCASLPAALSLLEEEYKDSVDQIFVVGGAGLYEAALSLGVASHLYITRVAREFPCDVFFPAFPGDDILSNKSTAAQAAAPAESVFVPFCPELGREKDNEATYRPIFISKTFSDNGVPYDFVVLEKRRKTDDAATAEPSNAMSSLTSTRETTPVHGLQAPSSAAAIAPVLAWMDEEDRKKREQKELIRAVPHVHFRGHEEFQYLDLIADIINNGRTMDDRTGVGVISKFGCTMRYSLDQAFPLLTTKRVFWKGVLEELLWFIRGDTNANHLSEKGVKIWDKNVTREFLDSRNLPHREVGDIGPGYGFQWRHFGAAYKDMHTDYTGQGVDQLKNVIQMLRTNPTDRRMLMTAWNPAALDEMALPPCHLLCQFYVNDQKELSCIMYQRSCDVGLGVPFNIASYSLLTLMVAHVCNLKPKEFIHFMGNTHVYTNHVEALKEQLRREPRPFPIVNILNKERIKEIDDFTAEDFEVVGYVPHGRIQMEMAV
The assay can be described thus: Inhibition of Toxoplasma gondii TS-DHFR expressed in Escherichia coli BL21 preincubated for 15 mins followed by addition of DHF as substrate and NADPH measured after 60 mins by resazurin/diaphorase coupled assay. Type of assay: cell-free. For orientation: Resazurin is reduced to fluorescent resorufin, in cell work by metabolically active cells.

A further assay has as its target T2, Dihydrofolate reductase (Homo sapiens, UniProt P00374).
T2 sequence (P00374 whole entry): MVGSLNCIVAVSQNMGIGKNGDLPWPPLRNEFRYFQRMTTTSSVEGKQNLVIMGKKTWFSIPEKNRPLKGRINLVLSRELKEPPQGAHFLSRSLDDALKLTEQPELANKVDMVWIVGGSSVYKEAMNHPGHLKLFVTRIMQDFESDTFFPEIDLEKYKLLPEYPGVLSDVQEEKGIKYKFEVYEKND
The assay can be described thus: Inhibition of recombinant human DHFR expressed in Escherichia coli preincubated for 15 mins followed by addition of DHF as substrate and NADPH measured after 60 mins by resazurin/diaphorase coupled assay.

As a reminder, the IC50 is the concentration at which inhibition is half-maximal. Consider `Cc1nc(N)nc(N)c1C(=O)N1CCN(c2cccc(-c3ccccc3)c2)CC1`, for which the Ratio IC50 in assay [1] is > 4. Moreover, the IC50 in assay [2] was 2400 nM; on Dihydrofolate reductase, > 10000 nM.

With `Nc1ncc(Cn2cc(-c3cccc(Cl)c3)c3cccnc32)c(N)n1`, the IC50 (in assay [2]; at Dihydrofolate reductase) was > 10000 nM in each case.

As to `Nc1nc(N)c(-c2c[nH]c3ccccc23)c(C2CC2)n1`, the Ratio IC50 in assay [1] is 2.9. Besides, the IC50 worked out at 910 nM in assay [2] and 2500 nM on Dihydrofolate reductase.

For `Cn1c(-c2cccc(Cl)c2)cc2c(N)nc(N)nc21`, the half-maximal inhibitory concentration (IC50) (in assay [2]; at Dihydrofolate reductase) was > 10000 nM each time.

In the case of `Nc1ncc(N2CCN(c3ccc(Cl)c(Cl)c3)CC2)c(N)n1`, in assay [1], the Ratio IC50 amounted to 10. Also, the IC50 in assay [2] was 17 nM; on Dihydrofolate reductase it was 92 nM.

On to `Cc1nc(N)nc(N)c1C(=O)N1CCN(c2cc(Cl)ccc2-c2ccccn2)CC1`, for which the IC50 (in assay [2]; at Dihydrofolate reductase) was > 10000 nM in each case.

`Cc1nc(N)nc(N)c1CN1CCN(c2cc(Cl)ccc2-c2ccccn2)CC1`: the Ratio IC50 in assay [1] stood at 6.5. In addition, the IC50 in assay [2] was found to be 370 nM; at Dihydrofolate reductase, 2100 nM.

For the molecule `Nc1ncc(CN2CCN(c3cccc(C(F)(F)F)c3)CC2)c(N)n1`, in assay [1], the Ratio IC50 was 0.12. The IC50 in assay [2] came out at 80000 nM; on Dihydrofolate reductase, 9200 nM.

Turning to `Nc1nc(Cl)c2cc(-c3cccc(Cl)c3)[nH]c2n1`, the Ratio IC50 in assay [1] was < 1. The IC50 in assay [2] is > 10000 nM; on Dihydrofolate reductase, 4200 nM.

For `COc1ccc(-c2c[nH]c3nc(N)nc(OC(C)C)c23)cc1C(F)(F)F`, the IC50 (in assay [2]; at Dihydrofolate reductase) was > 10000 nM in each case.

Regarding `Cn1cc(-c2c(N)nc(N)nc2C2CC2)c2ccccc21`, the Ratio IC50 in assay [1] worked out at 6.1. For the same molecule, the figures for the IC50 (in assay [2]; at Dihydrofolate reductase) were 460 nM and 2800 nM, respectively.

`Nc1ncc(CN2CCCN(C(=O)c3cccc(C(F)(F)F)c3)CC2)c(N)n1`: the IC50 (in assay [2]; at Dihydrofolate reductase) was > 10000 nM each time.

For the molecule `Cc1nc(N)nc(N)c1C(=O)N1CCN(c2cccc(-c3cccc(C#N)c3)c2)CC1`, the Ratio IC50 in assay [1] was > 3.3. Also, the IC50 in assay [2] was 3000 nM; on Dihydrofolate reductase, > 10000 nM.

For the molecule `Cc1nc(N)nc(N)c1CN1CCN(c2cccc(-c3ccccc3)c2)CC1`, the Ratio IC50 in assay [1] was determined as 1. The IC50 (in assay [2]; at Dihydrofolate reductase) was 1100 nM in each case.

For `Nc1ncc(Cn2ccc3c(-c4ccc(C(F)(F)F)cc4)cccc32)c(N)n1`, the Ratio IC50 in assay [1] was > 3.5. The IC50 was 2700 nM in assay [2] and > 10000 nM at Dihydrofolate reductase.

With `Nc1ncc(CN2CCN(c3cc(Cl)ccc3OCc3cccc(C(F)(F)F)c3)CC2)c(N)n1`, in assay [1], the Ratio IC50 is > 80. In addition, the figures for the IC50 (in assay [2]; on Dihydrofolate reductase) were 950 nM and > 75000 nM, respectively.

Regarding `Nc1nc2[nH]c(-c3cccc(Cl)c3)cc2c(=O)[nH]1`, the IC50 (in assay [2]; on Dihydrofolate reductase) was > 10000 nM each time.

With `Nc1ncc(Cn2cc(-c3ccc(F)c(F)c3)c3cnccc32)c(N)n1`, the IC50 (in assay [2]; at Dihydrofolate reductase) was > 10000 nM throughout.

Regarding `Cn1c(-c2cccc(Cl)c2)cc2c(Cl)nc(N)nc21`, the IC50 (in assay [2]; at Dihydrofolate reductase) was > 10000 nM throughout.

For the molecule `Cc1nc(N)nc(N)c1CN1CCN(c2cccc(-c3cccc(C#N)c3)c2)CC1`, the Ratio IC50 in assay [1] worked out at 4.7. For the same molecule, the IC50 in assay [2] was 200 nM; on Dihydrofolate reductase it was 920 nM.

For the molecule `Nc1ncc(Cn2cc(-c3cccc(C(F)(F)F)c3)c3ccccc32)c(N)n1`, the Ratio IC50 in assay [1] is > 10. Further, the IC50 in assay [2] was 980 nM; on Dihydrofolate reductase it was > 10000 nM.
